Assay results taken from EP0134302A1, “Pharmaceutical compositions for treating resistant bacteria including anaerobes” (Bristol-Myers Company, priority 1983, dated 1985).
In brackets after ≈: the same amount, converted by molar mass. Several values for one entry are separate records, joined by “and”; a condition that tells them apart may be missing. Equal entries are not always repeated. Where two headings read alike, the source gives them in different places.

Assays:
[1] = Blood concentrations of BL-P 2013 after oral administration; assay type: in vivo; settings: mice; oral administration of doses of 25 to 100 mg./kg. of body weight
C. freundii = assay: microbe, parasite or virus in culture; assay type: cell-based
Serratia marcescens = assay: microbe, parasite or virus in culture; assay type: cell-based
Providencia rettgeri = assay: microbe, parasite or virus in culture; assay type: cell-based
S. aureus = assay: microbe, parasite or virus in culture; assay type: cell-based
Clostridium perfringens = assay: microbe, parasite or virus in culture; assay type: cell-based
Morganella morganii = assay: microbe, parasite or virus in culture; assay type: cell-based
Providencia stuartii = assay: microbe, parasite or virus in culture; assay type: cell-based
Enterobacter aerogenes = assay: microbe, parasite or virus in culture; assay type: cell-based; settings: Klebsiella aerogenes
Enterobacter cloacae = assay: microbe, parasite or virus in culture; assay type: cell-based
Bacteroides fragilis = assay: microbe, parasite or virus in culture; assay type: cell-based
Proteus vulgaris = assay: microbe, parasite or virus in culture; assay type: cell-based
P. aeruginosa = assay: microbe, parasite or virus in culture; assay type: cell-based; settings: Pseudomonas aeruginosa
B. fragilis = settings: cited from earlier work
[2] = Table 1, C. perfringens, 3 strains (first group), geometric mean, 2 tests, BL-P 2013 as K salt
[3] = Table 1, C. perfringens, 3 strains (second group), geometric mean, 2 tests, BL-P 2013 as K salt
[4] = Table 1, C. perfringens, 8 strains, geometric mean, 2 tests, BL-P 2013 as K salt
[5] = Table 3, C. perfringens, 1 strain
[6] = Table 3, C. perfringens, 2 strains, geometric mean
[7] = Table 3, C. perfringens, 4 strains, geometric mean
[8] = Table 3, C. perfringens, 6 strains, geometric mean

CC(C)(C)C(=O)OCOC(=O)[C@@H]1N2C(=O)C[C@H]2S(=O)(=O)[C@@]1(C)CCl
blood concentrations of BL-P 2013 [1]: Operative blood concentrations

C[C@]1(CCl)[C@H](C(=O)OC2OC(=O)c3ccccc32)N2C(=O)C[C@H]2S1(=O)=O (stereo partly shown)
blood concentrations of BL-P 2013 [1]: Operative blood concentrations

C[C@]1(CCl)[C@H](C(=O)O)N2C(=O)C[C@H]2S1(=O)=O [BL-P 2013]
MIC (C. freundii; Citrobacter freundii): > 125 µg/mL
MIC (Serratia marcescens): > 125 µg/mL
MIC (Providencia rettgeri): > 125 µg/mL
MIC (S. aureus): 73 µg/mL and 96 µg/mL and 85 µg/mL
MIC (S. aureus; Staphylococcus aureus): 100 µg/mL (≈ 374 µM)
blood concentrations of BL-P 2013 [1]: Operative blood concentrations
MIC (Clostridium perfringens; [2]): > 125 µg/mL
MIC (Clostridium perfringens; [3]): 89 µg/mL
MIC (Clostridium perfringens; [4]): > 120 µg/mL
MIC (Clostridium perfringens; [5]): > 32 µg/mL
MIC (Clostridium perfringens; [6]): > 32 µg/mL
MIC (Clostridium perfringens; [7]): 27 µg/mL (≈ 101 µM)
MIC (Clostridium perfringens; [8]): > 32 µg/mL
MIC (Morganella morganii): > 125 µg/mL
MIC (Providencia stuartii): > 125 µg/mL
MIC (Enterobacter aerogenes): > 125 µg/mL
MIC (Enterobacter cloacae): > 125 µg/mL
MIC (Bacteroides fragilis; Bacteroides fragilis): 21 µg/mL (≈ 78.4 µM)
MIC (Proteus vulgaris): > 125 µg/mL
MIC (P. aeruginosa): > 125 µg/mL

CC1(C)[C@H](C(=O)O)N2C(=O)C[C@H]2S1(=O)=O [CP-45,899, Penicillanic acid-1,1-dioxide]
synergism with ampicillin against B. fragilis (B. fragilis; Fass, Abstract No. 605, 1980): highly synergistic

CC(C)(O/N=C(\C(=O)N[C@@H]1C(=O)N2C(C(=O)[O-])=C(C[n+]3ccccc3)CS[C@H]12)c1csc(N)n1)C(=O)O [Ceftazidime, reference compound]
MIC (C. freundii): 63 µg/mL (≈ 115 µM)
MIC (S. aureus): 8.6 µg/mL and 9.7 µg/mL
MIC (S. aureus; Staphylococcus aureus): 8 µg/mL (≈ 14.6 µM)
MIC (Clostridium perfringens; [2]): 0.04 µg/mL
MIC (Clostridium perfringens; [3]): 0.7 µg/mL
MIC (Clostridium perfringens; [4]): 3.3 µg/mL
MIC (Clostridium perfringens; [5]): 2 µg/mL (≈ 3.66 µM)
MIC (Clostridium perfringens; [6]): 5.7 µg/mL (≈ 10.4 µM)
MIC (Clostridium perfringens; [7]): 0.11 µg/mL (≈ 0.201 µM)
MIC (Clostridium perfringens; [8]): 0.1 µg/mL (≈ 0.183 µM)
susceptibility of Bacteroides fragilis strains (Bacteroides fragilis): resistant
activity against B. fragilis (B. fragilis; Wise et al. 1980): low activity
MIC (Proteus vulgaris): 0.063 µg/mL (≈ 0.115 µM)
MIC (P. aeruginosa): 8 µg/mL (≈ 14.6 µM)
